In patent US9149038B2, “4-amino-6-(heterocyclic)picolinates and 6-amino-2-(heterocyclic)pyrimidine-4-carboxylates and their use as herbicides” (Dow AgroSciences LLC, priority 2013, dated 2015):
Where two headings read alike, the source gives them in different places.

Experiments:
[1] = test system: Key Broadleaf Weed and Crop Species; experiment: Post-Emergent Test II: postemergent herbicidal activity, visual rating after 14 d (Table 7); format: in vivo; details: post-emergence, 336 h; for pest or weed control at 35 g/ha: 35 g ai/ha; for pest or weed control at 70 g/ha: 70 g ai/ha; for pest or weed control at 140 g/ha: 140 g ai/ha
Summary of the method: (§1)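 Visual scoring at 14 d, 0 (no injury) to 100 (complete kill), relative to untreated plants. Postemergent overhead track-sprayer application, 187 L/ha, at a top rate plus serial ½×–1/16× rates, to plants grown 7–21 d at about 23–29° C day under a 15 h photoperiod, then subirrigated.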

[2] = test system: Key Grass and Sedge Weeds as well as Grass Crops; experiment: Post-Emergent Test II: postemergent herbicidal activity, visual rating after 14 d (Table 8); format: in vivo; details: post-emergence, 336 h; for pest or weed control at 35 g/ha: 35 g ai/ha; for pest or weed control at 70 g/ha: 70 g ai/ha; for pest or weed control at 140 g/ha: 140 g ai/ha
Summary of the method: as §1

[3] = ABUTH: velvetleaf (Abutilon theophrasti), read-out: Visual Growth Reduction (%) 14 Days After Application ABUTH
[4] = AMARE: redroot pigweed (Amaranthus retroflexus), read-out: Visual Growth Reduction (%) 14 Days After Application AMARE
[5] = BRSNN: oilseed rape, canola (Brassica napus), read-out: Visual Growth Reduction (%) 14 Days After Application BRSNN
[6] = CHEAL: lambsquarters (Chenopodium album), read-out: Visual Growth Reduction (%) 14 Days After Application CHEAL
[7] = EPHHL: wild poinsettia (Euphorbia heterophylla), read-out: Visual Growth Reduction (%) 14 Days After Application EPHHL
[8] = HELAN: sunflower (Helianthus annuus), read-out: Visual Growth Reduction (%) 14 Days After Application HELAN
[9] = barnyardgrass (Echinochloa crus-galli), read-out: Visual Growth Reduction (%) 14 Days After Application, ECHCG
[10] = giant foxtail (Setaria faberi), read-out: Visual Growth Reduction (%) 14 Days After Application, SETFA
[11] = maize, corn (Zea mays), read-out: Visual Growth Reduction (%) 14 Days After Application, ZEAMX
[12] = rice (Oryza sativa), read-out: Visual Growth Reduction (%) 14 Days After Application, ORYSA
[13] = wheat, spring (Triticum aestivum), read-out: Visual Growth Reduction (%) 14 Days After Application, TRZAS
[14] = yellow nutsedge (Cyperus esculentus), read-out: Visual Growth Reduction (%) 14 Days After Application, CYPES

COC(=O)c1nc(-c2ccc(F)c3c2OCO3)c(F)c(N)c1Cl [Compound 83]
pest or weed control at 35 g/ha [1, 3]: 85 to 94%
pest or weed control at 70 g/ha [1, 3]: 85 to 94%
pest or weed control at 140 g/ha [1, 3]: 95 to 100%
pest or weed control at 35 g/ha [1, 4]: 95 to 100%
pest or weed control at 70 g/ha [1, 4]: 95 to 100%
pest or weed control at 140 g/ha [1, 4]: 95 to 100%
pest or weed control at 35 g/ha [1, 5]: 30 to 44%
pest or weed control at 70 g/ha [1, 5]: 95 to 100%
pest or weed control at 140 g/ha [1, 5]: 95 to 100%
pest or weed control at 35 g/ha [1, 6]: 95 to 100%
pest or weed control at 70 g/ha [1, 6]: 95 to 100%
pest or weed control at 140 g/ha [1, 6]: 95 to 100%
pest or weed control at 35 g/ha [1, 7]: 0 to 29%
pest or weed control at 70 g/ha [1, 7]: 0 to 29%
pest or weed control at 140 g/ha [1, 7]: 0 to 29%
pest or weed control at 35 g/ha [1, 8]: 85 to 94%
pest or weed control at 70 g/ha [1, 8]: 95 to 100%
pest or weed control at 140 g/ha [1, 8]: 95 to 100%
pest or weed control at 35 g/ha [2, 9]: 0 to 29%
pest or weed control at 70 g/ha [2, 9]: 0 to 29%
pest or weed control at 140 g/ha [2, 9]: 0 to 29%
pest or weed control at 35 g/ha [2, 10]: 0 to 29%
pest or weed control at 70 g/ha [2, 10]: 0 to 29%
pest or weed control at 140 g/ha [2, 10]: 0 to 29%
pest or weed control at 35 g/ha [2, 11]: 0 to 29%
pest or weed control at 70 g/ha [2, 11]: 0 to 29%
pest or weed control at 140 g/ha [2, 11]: 0 to 29%
pest or weed control at 35 g/ha [2, 12]: 0 to 29%
pest or weed control at 70 g/ha [2, 12]: 0 to 29%
pest or weed control at 140 g/ha [2, 12]: 0 to 29%
pest or weed control at 35 g/ha [2, 13]: 0 to 29%
pest or weed control at 70 g/ha [2, 13]: 0 to 29%
pest or weed control at 140 g/ha [2, 13]: 0 to 29%
pest or weed control at 35 g/ha [2, 14]: 0 to 29%
pest or weed control at 70 g/ha [2, 14]: 0 to 29%
pest or weed control at 140 g/ha [2, 14]: 0 to 29%
